The record followed here is publication PMC6947571, “An Orthologue of the Retinoic Acid Receptor (RAR) Is Present in the Ecdysozoa Phylum Priapulida” (Genes, 2019).

In this assay the target is T1, HsaRARα LBD (Homo sapiens, UniProt P10276).
T1 construct: gene RARA; glutathione S-transferase fusion (pGEX-4T-1), E. coli BL21(DE3)
T1 sequence (P10276 183-417 limits assumed): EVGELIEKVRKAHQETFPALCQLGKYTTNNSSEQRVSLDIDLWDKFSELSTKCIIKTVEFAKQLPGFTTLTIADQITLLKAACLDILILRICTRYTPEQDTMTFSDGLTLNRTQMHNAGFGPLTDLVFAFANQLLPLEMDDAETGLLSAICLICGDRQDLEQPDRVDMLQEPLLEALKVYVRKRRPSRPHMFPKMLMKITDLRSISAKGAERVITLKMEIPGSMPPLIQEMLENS
The assay can be described thus: competitive radioligand binding, hydroxyapatite precipitation. Conditions: 4 °C, labelled compound, positive control.

Regarding `CC1=C(/C=C/C(C)=C\C=C\C(C)=C\C(=O)O)C(C)(C)CCC1` [9cisRA], the “competitive radioligand binding, hydroxyapatite precipitation” value (10 nM [3H]ATRA or [3H]9cisRA displaced by unlabelled 9cisRA) was “Competition by ATRA and 9cisRA with [^3H]ATRA and [^3H]9cisRA for binding to the LBD”. For the compound `CC1=C(/C=C/C(C)=C/C=C/C(C)=C/C(=O)O)C(C)(C)CCC1` [ATRA], under “10 nM [3H]ATRA displaced by unlabelled ATRA”, the “competitive radioligand binding, hydroxyapatite precipitation” value is “Competition by ATRA and 9cisRA with [^3H]ATRA and [^3H]9cisRA for binding to the LBD”.
